Like-named read-outs stand apart in the source and are kept apart here.
Assays:
Format in all cases: cell-based, human
A549 cells = assay: Single-dose CCK-8 cell viability screening (adherent cells); settings: Homo sapiens
Method: (§1) In this example, the anti-cancer properties of the BB analogues described in Table 1d were evaluated. Single-dose screening approach is used for initial testing to assess the cytotoxic effect of the BB analogues (also referred to as ‘BB compounds’) on Jurkat cells (human T cell leukaemia cells) and A549 cells (human lung cancer cells).
(§2) Method for Adherent Cells (A549 Cells)
(§3) In this example, 5000 cells/100 uL were seeded in 96-well plates and incubate at 37° C.+5% CO2 overnight. Media were replaced with 100 uL of 50 uM compound per well in 6 replicates. The following controls were prepared.
(§4) Blank control: 100 uL 0.1% DMSO in media with no cells per well.
(§5) Positive control: 100 uL of 10 uM 5-flurouracil per well.
(§6) Negative control: 100 uL of 0.1% DMSO in media per well.
(§7) Each 96-well plate included 7 compounds and the complete set of controls (in 6 replicates).
(§8) Cells were incubated at 37° C.+5% CO2 for 46 hours. 10 uL of CCK8 solution was added to each well. Cells were then incubated at 37° C.+5% CO2 for 2 hours. Absorbance at 450 nm was measured using a multiplate reader.
(§9) Viability was calculated using the equation: […]
(§10) The benchmark in Table 2 was used to define the activities of each compound.

[1] = as above; settings: Homo sapiens, average of A549 and Jurkat % viability, 50 uM, 48 h
Method: as §1, §2, §3, §4, §5, §6, §7, §8, §9, §10

Jurkat cells = assay: Single-dose CCK-8 cell viability screening (suspension cells); settings: Homo sapiens, 48 h
Method: as §1
Method for Suspension Cells (Jurkat Cells)
5000 cells/90 uL were seeded in 96-well plates. 10 uL of 500 uM compound (10×) was added to each well in 6 replicates. The following controls were prepared.
Blank control: 10 uL 1% DMSO in media with no cells per well.
Positive control: 10 uL of 100 uM 5-flurouracil (10×) per well.
Negative control: 10 uL of 1% DMSO in media (10×) per well.
Each 96-well plate included 7 BB analogues and the complete set of controls (in 6 replicates).
as §8, §9, §10

[2] = A549, 48 h, A549 cells, 50 uM, 48 h, CCK-8, read-out: % Viability (50 uM, 48 h) A549
[3] = Jurkat, Jurkat cells, 50 uM, CCK-8, read-out: % Viability (50 uM, 48 h) Jurkat
[4] = A549, 48 h, read-out: % Viability (50 uM, 48 h) A549
[5] = Jurkat, read-out: % Viability (50 uM, 48 h) Jurkat

Row | SMILES | viability at 50 µM (A549 cells; [2]) | viability at 50 µM ([1]; A549, 48 h) | viability at 50 µM (Jurkat cells; [3]) | also measured
1 | CC(C)(C)[C@]1(O)C[C@@H]2OC(=O)C[C@@]23C(=O)O[C@@H]2N(N)C(=O)[C@H](O)[C@]213 [JW072, (3aS,5aS,8R,8aS,9R,10aS)-6-amino-9-(tert-butyl)-8,9-dihydroxytetrahydro-4H,9H-furo [3″,2″:2′,3′]cyclopenta [1′,2′:3,4]furo [2,3-b]pyrrole-2,4,7(3H,8H)-trione] |  |  |  | viability at 50 µM (A549 cells; A549 cells, 50 uM, 48 h, CCK-8, read-out: % Viability (50 uM, 48 h) A549): 103%; viability at 50 µM [1]: 100%; viability at 50 µM (Jurkat cells; Jurkat cells, 50 uM, CCK-8, read-out: % Viability (50 uM, 48 h) Jurkat): 97.2%
2 | CC(C)(C)[C@]1(O)C[C@@H]2OC(=O)C[C@@]23C(=O)O[C@@H]2N(CCC4CCNCC4)C(=O)C(OC(=O)c4ccccc4)[C@]213 (stereo in doubt) [XBB-024, 4-(2-((3aS,5aS,8S,8aS,9R,10aS)-8-(benzoyloxy)-9-(tert-butyl)-9-hydroxy-2,4,7-trioxohexahydro-4H,9H-furo [3″,2″:2′,3′]cyclopenta [1′,2′:3,4]furo[2,3-b]pyrrol-6(5aH)-yl)ethyl)piperidin-1-ium chloride] | 94.7% | 96.2% | 97.8% | 
3 | CC(=O)O[C@H]1C(=O)N[C@H]2OC(=O)[C@]34CC(=O)O[C@H]3C=C(C(C)(C)C)[C@@]214 [XBB-010, (3aS,5aS,8R,8aS,10aS)-9-(tert-butyl)-2,4,7-trioxo-2,3,5a,6,7,8-hexahydro-4H,10aH-furo[3″,2″:2′,3′]cyclopenta[1′,2′:3,4]furo[2,3-b]pyrrol-8-yl acetate] |  | 114% |  | viability at 50 µM (A549 cells; A549, 48 h, read-out: % Viability (50 uM, 48 h) A549, A549 cells, 50 uM, 48 h, CCK-8): 112%; viability at 50 µM (Jurkat cells; Jurkat, read-out: % Viability (50 uM, 48 h) Jurkat, Jurkat cells, 50 uM, 48 h, CCK-8): 115%
4 | CC(C)(C)[C@]1(O)C[C@@H]2OC(=O)C[C@@]23C(=O)O[C@@H]2N(c4ccc(F)cc4)C(=O)[C@H](OC(=O)c4ccccc4)[C@]213 [P-28, (3aS,5aS,8R,9R,10aS)-9-(tert-butyl)-9-hydroxy-2,4,7-trioxo-6-(4-fluorophenyl)octahydro-4H,9H-furo [3″,2″:2′,3′]cyclopenta [1′,2′:3,4]furo [2,3-b]pyrrol-8-yl benzoate] |  | 72.7% |  | viability at 50 µM (A549 cells; [4]): 76.2%; viability at 50 µM (Jurkat cells; [5]): 69.2%
5 | CC(=O)O[C@H]1C(=O)N(CC2CCN(C(=O)OC(C)(C)C)CC2)[C@H]2OC(=O)[C@]34CC(=O)O[C@H]3C=C(C(C)(C)C)[C@@]214 [XBB-060] | 108% | 106% | 104% | 
6 | CC(C)(C)[C@]1(O)C[C@@H]2OC(=O)C[C@@]23C(=O)O[C@@H]2N(c4ccc5c(c4)OCO5)C(=O)[C@H](OC(=O)c4ccccc4)[C@]213 [XBB-039, (3aS,5aS,8R,8aS,9R,10aS)-6-(benzo[d][1,3]dioxol-5-yl)-9-(tert-butyl)-9-hydroxy-2,4,7-trioxooctahydro-4H,9H-furo [3″,2″:2′,3′]cyclopenta [1′,2′:3,4]furo [2,3-b]pyrrol-8-yl benzoate] | 78.4% | 74.1% | 69.7% | 
7 | COc1ccc(CN2C(=O)[C@H](OC(=O)c3ccccc3)[C@@]34[C@@H]2OC(=O)[C@@]32CC(=O)O[C@H]2C[C@@]4(O)C(C)(C)C)c(OC)c1 [XBB-018, (3aS,5aS,8R,8aS,9R,10aS)-6-(2,4-dimethoxy-benzyl-9-(tert-butyl)-9-hydroxy-2,4,7-trioxooctahydro-4H,9H-furo [3″,2″:2′,3′]cyclopenta [1′,2′:3,4]furo [2,3-b]pyrrol-8-yl benzoate] | 86.5% | 94.5% | 102% | 
8 | CC(C)(C)[C@]1(O)C[C@@H]2OC(=O)C[C@@]23C(=O)O[C@@H]2N(c4cccnc4)C(=O)[C@H](OC(=O)c4ccccc4)[C@]213 [XBB-040, (3aS,5aS,8R,8aS,9R,10aS)-9-(tert-butyl)-9-hydroxy-2,4,7-trioxo-6-(pyridin-3-yl)octahydro-4H,9H-furo [3″,2″:2′,3′]cyclopenta [1′,2′:3,4]furo [2,3-b]pyrrol-8-yl benzoate] |  | 99% |  | viability at 50 µM (A549 cells; [4]): 99.6%; viability at 50 µM (Jurkat cells; [5]): 98.4%
9 | CC(C)(C)OC(=O)Nc1ccc(N2C(=O)[C@H](OC(=O)c3ccccc3)[C@@]34[C@@H]2OC(=O)[C@@]32CC(=O)O[C@H]2C[C@@]4(O)C(C)(C)C)cc1 [XBB-036] | 52.4% | 70.6% | 88.8% | 
10 | CC(C)(C)[C@]1(O)C[C@@H]2OC(=O)C[C@@]23C(=O)O[C@@H]2N(c4ccc(N5CCOCC5)cc4)C(=O)[C@H](O)[C@]213 [XBB-042, (3aS,5aS,8R,8aS,9R,10aS)-9-(tert-butyl)-8,9-dihydroxy-6-(4-morpholinophenyl)tetrahydro-4H,9H-furo [3″,2″:2′,3′]cyclopenta [1′,2′:3,4]furo [2,3-b]pyrrole-2,4,7(3H,8H)-trione] |  | 96.7% |  | viability at 50 µM (A549 cells; [4]): 95.6%; viability at 50 µM (Jurkat cells; [5]): 97.8%
11 | COc1cccc(N2C(=O)[C@H](OC(=O)c3ccccc3)[C@@]34[C@@H]2OC(=O)[C@@]32CC(=O)O[C@H]2C[C@@]4(O)C(C)(C)C)c1 [JW092, (3aS,5aS,8R,9R,10aS)-9-(tert-butyl)-9-hydroxy-6-(3-methoxyphenyl)-2,4,7-trioxodecahydrofuro [3″,2″:2′,3′]cyclopenta [1′,2′:3,4]furo [2,3-b]pyrrol-8-yl benzoate] | 53.7% | 61.5% | 69.3% | 
12 | CC(C)(C)[C@]1(O)C[C@@H]2OC(=O)C[C@@]23C(=O)O[C@@H]2N(c4cccc(C(F)(F)F)c4)C(=O)[C@H](OC(=O)c4ccccc4)[C@]213 [JW100, (3aS,5aS,8R,9R,10aS)-9-(tert-butyl)-9-hydroxy-2,4,7-trioxo-6-(3-(trifluoromethyl)phenyl)octahydro-4H,9H-furo [3″,2″:2′,3′]cyclopenta [1′,2′:3,4]furo [2,3-b]pyrrol-8-yl benzoate] |  | 61.1% |  | viability at 50 µM (A549 cells; [4]): 54%; viability at 50 µM (Jurkat cells; [5]): 68.2%
13 | CC(C)(C)[C@]1(O)C[C@@H]2OC(=O)C[C@@]23C(=O)O[C@@H]2N(C4COC4)C(=O)[C@H](OC(=O)c4ccccc4)[C@]213 [DW182, (3aS,5aS,8R,8aS,9R,10aS)-9-(tert-butyl)-9-hydroxy-6-(oxetan-3-yl)-2,4,7-trioxooctahydro-4H,9H-furo [3″,2″:2′,3′]cyclopenta [1′,2′:3,4]furo [2,3-b]pyrrol-8-yl benzoate] | 114% | 107% | 101% | 
14 | CC(C)(C)[C@]1(O)C[C@@H]2OC(=O)C[C@@]23C(=O)O[C@@H]2N(C45CC(C4)C5)C(=O)[C@H](OC(=O)c4ccccc4)[C@]213 [DW172, (3aS,5aS,8R,8aS,9R,10aS)-6-(bicyclo[1.1.1]pentan-1-yl)-9-(tert-butyl)-9-hydroxy-2,4,7-trioxooctahydro-4H,9H-furo [3″,2″:2′,3′]cyclopenta [1′,2′:3,4]furo[2,3-b]pyrrol-8-yl benzoate] |  |  |  | viability at 50 µM (A549 cells; [4]): 98.7%; viability at 50 µM [1]: 96.6%; viability at 50 µM (Jurkat cells; [5]): 94.4%
15 | Cc1cccc(N2C(=O)[C@H](OC(=O)c3ccccc3)[C@@]34[C@@H]2OC(=O)[C@@]32CC(=O)O[C@H]2C[C@@]4(O)C(C)(C)C)c1 [P-33, (3aS,5aS,8R,9R,10aS)-9-(tert-butyl)-9-hydroxy-2,4,7-trioxo-6-(3-methylphenyl)octahydro-4H,9H-furo [3″,2″:2′,3′]cyclopenta [1′,2′:3,4]furo [2,3-b]pyrrol-8-yl benzoate] | 61.1% | 63.5% | 66% | 
16 | C=C(C)[C@@]1(C)C[C@@H]2OC(=O)C[C@@]23C(=O)O[C@@H]2N(c4ccccc4)NC(=O)[C@H](OC(C)=O)[C@]213 [XBB-075] | 67.4% | 84% | 101% | 
17 | CC(C)(C)[C@]1(O)C[C@@H]2OC(=O)C[C@@]23C(=O)O[C@@H]2N(c4cc(F)cc(F)c4)C(=O)[C@H](OC(=O)c4ccccc4)[C@]213 [P-19, (3aS,5aS,8R,8aS,9R,10aS)-9-(tert-butyl)-9-hydroxy-2,4,7-trioxo-6-(3,5-difluoro-phenyl)octahydro-4H,9H-furo [3″,2″:2′,3′]cyclopenta [1′,2′:3,4]furo [2,3-b]pyrrol-8-yl benzoate] | 50.2% | 60.2% | 70.2% | 
